Laboratory results from paper PMC11876601 (Molecular Systems Biology, 2025).
pEC50: −log10 of the molar value. Where “and” joins values, the source holds several entries; their conditions need not be identical. Identical values can stand only once. Like-named read-outs stand apart in the source and are kept apart here.

Tested on: AsPC-1 cells
Assay: Cell proliferation assay, chemodrug + ATR inhibitor (Incucyte confluence, 72 h);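 also: underlying read-out for every value is AsPC-1 confluence after 72 h incubation at 37 °C and 5% CO2, divided by that well's starting confluence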
Details: for Curve slope / Curve bottom / Curve top: fitted dose-response curve; for Curve bottom / Curve top: relative response; for pEC50 / EC50: Homo sapiens
[1] = AsPC1, Experiment ATRi (ATR inhibitor alone)
[2] = AsPC1, Experiment GEM+ATRi_dose1
[3] = AsPC1, Experiment GEM+ATRi_dose2
[4] = AsPC1, Experiment GEM+ATRi_dose3

Experimental: Cells were seeded at 5000 cells/well into 96-well flat bottom plates (Eppendorf) and allowed to attach overnight. […] Cells were incubated for 72 h at 37 °C and 5% CO2. Cell confluence readouts at 72 h were either normalized to their initial confluence using the Incucyte software (AsPC-1) or used without prior normalization (all others). […] Each experiment was performed in triplicates, the data was plotted as mean ± standard deviation (s.d.).

For `C[C@@H]1COCCN1c1cc(C2([S@](C)(=N)=O)CC2)nc(-c2cc[nH]c3nccc2-3)n1` [Ceralasertib], the Curve slope [1] was 2.93 and 3.34 and 3.10, the Curve bottom [1] was 1.16 and 0.93 and 0.99 and the Curve top [1] was 0.45 and 0.34 and 0.35. For the same compound, the Curve slope [2] was 1.26 and 1.52 and 1.58, the Curve bottom [2] was 1.03 and 0.96 and 0.97 and the Curve top [2] was 0.53 and 0.41 and 0.45. The Curve bottom [3] was 1.06 and 0.94 and 0.90, the Curve top [3] was 0.50 and 0.38 and 0.42 and the Curve slope [4] was 1.68 and 1.97. For the same compound, the Curve bottom [4] was 0.98, the Curve top [4] was 0.46 and 0.35 and 0.39 and the “Raw data (confluence at 72 h/confluence at 0 h)” value (from here on “Raw data”) (Ceralasertib experiment, replicate R1, titrated drug dose 3 nM) was 3.36. For the same compound, the “Raw data” value (Ceralasertib experiment, replicate R1, titrated drug dose 10 nM) was 3.44, the “Raw data” value (Ceralasertib experiment, replicate R1, titrated drug dose 30 nM) was 3.6 and the “Raw data” value (Ceralasertib experiment, replicate R1, titrated drug dose 100 nM) was 3.35. For the same compound, the “Raw data” value (Ceralasertib experiment, replicate R1, titrated drug dose 300 nM) was 3.69, the “Raw data” value (Ceralasertib experiment, replicate R1, titrated drug dose 1000 nM) was 3.19 and the “Raw data” value (Ceralasertib experiment, replicate R1, titrated drug dose 3000 nM) was 1.77. The “Raw data” value (Ceralasertib experiment, replicate R1, titrated drug dose 10000 nM) was 1.38, the “Raw data” value (Ceralasertib experiment, replicate R2, titrated drug dose 3 nM) was 3.66 and the “Raw data” value (Ceralasertib experiment, replicate R2, titrated drug dose 10 nM) was 3.73. The “Raw data” value (Ceralasertib experiment, replicate R2, titrated drug dose 30 nM) was 3.9, the “Raw data” value (Ceralasertib experiment, replicate R2, titrated drug dose 100 nM) was 2.91 and the “Raw data” value (Ceralasertib experiment, replicate R2, titrated drug dose 300 nM) was 3.91. The “Raw data” value (Ceralasertib experiment, replicate R2, titrated drug dose 1000 nM) was 3.25, the “Raw data” value (Ceralasertib experiment, replicate R2, titrated drug dose 3000 nM) was 1.61 and the Response (GEM 0 nM, ATRi 100 nM) was 3.13. It also gave a Response (GEM 0 nM, ATRi 300 nM) of 3.19, a Response (GEM 0 nM, ATRi 1000 nM) of 3.06 and a Response (GEM 1 nM + ATRi 100 nM) of 3.00. It also gave a Response (GEM 1 nM + ATRi 300 nM) of 3.18, a Response (GEM 1 nM + ATRi 1000 nM) of 2.76 and a Response (GEM 3 nM + ATRi 100 nM) of 3.15. The Response (GEM 3 nM + ATRi 300 nM) was 3.26, the Response (GEM 3 nM + ATRi 1000 nM) was 2.99 and the Response (GEM 10 nM + ATRi 100 nM) was 2.74. It also gave a Response (GEM 10 nM + ATRi 300 nM) of 3.12, a Response (GEM 10 nM + ATRi 1000 nM) of 2.13 and a Response (GEM 30 nM + ATRi 100 nM) of 2.24. The Response (GEM 30 nM + ATRi 300 nM) was 2.10, the Response (GEM 100 nM + ATRi 100 nM) was 1.89 and the Response (GEM 100 nM + ATRi 1000 nM) was 1.42. It also gave a Response (GEM 300 nM + ATRi 100 nM) of 1.67, a Response (GEM 300 nM + ATRi 300 nM) of 1.55 and a Response (GEM 1000 nM + ATRi 100 nM) of 1.60. For the same compound, the Response (GEM 1000 nM + ATRi 300 nM) was 1.47, the Response (GEM 3000 nM + ATRi 100 nM) was 1.61 and the Response (GEM 3000 nM + ATRi 300 nM) was 1.44. It also gave a pEC50 (ASPC1, 72 h, AsPC1, Experiment ATRi (ATR inhibitor alone), single replicates R1-R3) of 5.74, a pEC50 (ASPC1, 72 h, read-out: EC50 (cell growth), ATR inhibitor as single agent) of 5.76 and an EC50 (ASPC1, 72 h, read-out: EC50 mean [nM], AsPC1, Experiment ATRi (ATR inhibitor alone), mean of replicates) of 1720 nM. For the same compound, the EC50 (ASPC1, 72 h, read-out: pEC50, AsPC1 (converted), Experiment ATRi (ATR inhibitor alone), single replicates R1-R3) was 1820 nM, the EC50 (ASPC1, read-out: EC50 mean [nM], AsPC1, Experiment ATRi (ATR inhibitor alone), mean of replicates) was 1720 nM and the Response (experiment ATRi, GEM 0 nM, ATRi 100 nM, AsPC1, replicates R2, R3) was 1.95. The Response (experiment GEM+ATRi_dose1, GEM 0 nM, ATRi 100 nM, AsPC1, replicates R2, R3) was 3.76 and 3.38, the Response (experiment GEM+ATRi_dose1, GEM 1 nM, ATRi 100 nM, AsPC1, replicates R2, R3) was 3.75 and 3.44 and the Response (experiment GEM+ATRi_dose1, GEM 3 nM, ATRi 100 nM, AsPC1, replicates R2, R3) was 3.76 and 3.47. The Response (experiment GEM+ATRi_dose1, GEM 10 nM, ATRi 100 nM, AsPC1, replicates R2, R3) was 3.43, the Response (experiment GEM+ATRi_dose1, GEM 30 nM, ATRi 100 nM, AsPC1, replicates R2, R3) was 2.86 and 2.80 and the Response (experiment GEM+ATRi_dose1, GEM 100 nM, ATRi 100 nM, AsPC1, replicates R2, R3) was 1.90 and 2.07. For the same compound, the Response (experiment GEM+ATRi_dose1, GEM 300 nM, ATRi 100 nM, AsPC1, replicates R2, R3) was 1.72 and 1.75, the Response (experiment GEM+ATRi_dose1, GEM 1000 nM, ATRi 100 nM, AsPC1, replicates R2, R3) was 1.62 and 1.67 and the Response (experiment GEM+ATRi_dose1, GEM 3000 nM, ATRi 100 nM, AsPC1, replicates R2, R3) was 1.55 and 1.53. The Response (experiment GEM+ATRi_dose2, GEM 0 nM, ATRi 300 nM, AsPC1, replicates R2, R3) was 3.86 and 3.56, the Response (experiment GEM+ATRi_dose2, GEM 1 nM, ATRi 300 nM, AsPC1, replicates R2, R3) was 3.53 and 2.33 and the Response (experiment GEM+ATRi_dose2, GEM 3 nM, ATRi 300 nM, AsPC1, replicates R2, R3) was 3.61 and 3.55. The Response (experiment GEM+ATRi_dose2, GEM 10 nM, ATRi 300 nM, AsPC1, replicates R2, R3) was 3.45 and 3.38, the Response (experiment GEM+ATRi_dose2, GEM 30 nM, ATRi 300 nM, AsPC1, replicates R2, R3) was 2.30 and the Response (experiment GEM+ATRi_dose2, GEM 100 nM, ATRi 300 nM, AsPC1, replicates R2, R3) was 1.61. The Response (experiment GEM+ATRi_dose2, GEM 300 nM, ATRi 300 nM, AsPC1, replicates R2, R3) was 1.48 and 1.53, the Response (experiment GEM+ATRi_dose2, GEM 1000 nM, ATRi 300 nM, AsPC1, replicates R2, R3) was 1.52 and 1.48 and the Response (experiment GEM+ATRi_dose2, GEM 3000 nM, ATRi 300 nM, AsPC1, replicates R2, R3) was 1.45. The Response (experiment GEM+ATRi_dose3, GEM 0 nM, ATRi 1000 nM, AsPC1, replicates R2, R3) was 3.10 and 2.81, the Response (experiment GEM+ATRi_dose3, GEM 1 nM, ATRi 1000 nM, AsPC1, replicates R2, R3) was 3.14 and 2.98 and the Response (experiment GEM+ATRi_dose3, GEM 3 nM, ATRi 1000 nM, AsPC1, replicates R2, R3) was 2.92. For the same compound, the Response (experiment GEM+ATRi_dose3, GEM 10 nM, ATRi 1000 nM, AsPC1, replicates R2, R3) was 2.52 and 2.34, the Response (experiment GEM+ATRi_dose3, GEM 30 nM, ATRi 1000 nM, AsPC1, replicates R2, R3) was 1.76 and 1.67 and the Response (experiment GEM+ATRi_dose3, GEM 100 nM, ATRi 1000 nM, AsPC1, replicates R2, R3) was 1.44. For the same compound, the Response (experiment GEM+ATRi_dose3, GEM 1000 nM, ATRi 1000 nM, AsPC1, replicates R2, R3) was 1.42, the “Raw data” value (titrated drug dose 3 nM, replicate R3, experiment (ATRi) Ceralasertib, AsPC-1, 72 h) was 3.28 and the “Raw data” value (titrated drug dose 10 nM, replicate R3, experiment (ATRi) Ceralasertib, AsPC-1, 72 h) was 3.61. The “Raw data” value (titrated drug dose 30 nM, replicate R3, experiment (ATRi) Ceralasertib, AsPC-1, 72 h) was 3.58, the “Raw data” value (titrated drug dose 300 nM, replicate R3, experiment (ATRi) Ceralasertib, AsPC-1, 72 h) was 3.61 and the “Raw data” value (titrated drug dose 1000 nM, replicate R3, experiment (ATRi) Ceralasertib, AsPC-1, 72 h) was 3.17. For the same compound, the “Raw data” value (titrated drug dose 3000 nM, replicate R3, experiment (ATRi) Ceralasertib, AsPC-1, 72 h) was 1.6 and the “Raw data” value (titrated drug dose 10000 nM, replicate R3, experiment (ATRi) Ceralasertib, AsPC-1, 72 h) was 1.25.
